B1: PDGF-BB: PDGF-BB in cell media, positive control of the scratch assay (protein, UniProt P01127 82-190, looked up)
Platelet-derived growth …: SLGSLTIAEPAMIAECKTRTEVFEISRRLIDRTNANFLVWPPCVEVQRCSGCCNNRNVQCRPTQVQLRPVQVRKIEIVRKKPIFKKATVTLEDHLACKCETVAAARPVT

How the values were obtained:
[1] = tested on: THP-1 cells; assay: LPS-induced inflammation in THP-1 cells (MSD V-PLEX cytokines), Example 25; type: cell-based, human; conditions: Candesartan 1 μg/mL; 500 ng LPS; 24 hours
Description: A composition comprising […] was prepared as described in Example 23 and sterile filtered, referred to as Composition […]. 300,000 THP-1 cells were plated per well. Control wells included media only. Cells were contacted with LPS and test articles as outlined in Tables 20 and 21. For a positive control, cells were administered 1.0 μg/mL Candesartan. Candesartan is a […] and known to reduce the production of cytokines. Specifically, candesartan is an angiotensin receptor subtype 1 inhibitor and was utilized as a positive control. The cells were incubated for 1 hour. The cells were incubated, and samples of the supernatant were collected at 4 hours and 24 hours. The remaining cells were collected and analyzed for total cell count and percent viability. The Meso Scale Discovery (MSD; Rockville, […]) V-PLEX kit (4-PLEX) with IL-1b, IL-6, IL-8, and TNF-α were used to analyze the cytokines in the media at 4 and 24 hours after LPS stimulation.

[2] = tested on: normal human dermal fibroblasts (NHDF) cells; assay: Scratch assay (in vitro wound closure); type: cell-based; conditions: 3.7 ng/mL PDGF-BB, positive control
Description: The test articles are outlined in Table 30 below. Briefly, AHPPDP was prepared based on the methods disclosed herein.
3,000 normal human dermal fibroblasts (NHDF) cells were plated per well. […] Vehicle at 9% concentration was the negative control.
The output measures of the scratch assay were, total number of nuclei per well, sum of cell area per well, and sum of empty area per well.

Molecule | IL1-beta [1] [pg/mL] | IL-6 [1] [pg/mL] | IL-8 [1] [pg/mL] | TNF-alpha [1] [pg/mL] | wound healing [2]
CCOc1nc2cccc(C(=O)O)c2n1Cc1ccc(-c2ccccc2-c2nnn[nH]2)cc1 [Candesartan] | 0 | 0 | 1.44 | 0 | –
B1 | – | – | – | – | Wound healing compared to vehicle condition was obtained

Source: patent US12576109B2, “Allogeneic human plasma and platelet derived products and uses thereof” (Consano Bio, Inc., priority 2024, dated 2026)
